Laboratory results: patent US12172975B2, “1H-indazole carboxamides as receptor-interacting protein kinase 1 inhibitors (RIPK1)” (BRISTOL-MYERS SQUIBB COMPANY, priority 2018, dated 2024)
Where a name gives a salt, the structure may show the parent alone. Read-outs that look alike come from different tables or passages of the source.

Tests used:
[1] = tested on: MLKL phosphorylation in HT29-L23 human colorectal adenocarcinoma cells; assay: MLKL Phosphorylation High-Content Assay; assay type: cell-based; conditions: necroptosis induced with TNFα, SMAC mimetic and Z-VAD, 6 h, read-out: pMLKL (IC50)
How it was run: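 Following fixation and staining for phospho-S358 MLKL with Hoechst nuclear counterstain, high-content imaging quantified phosphorylation in HT29-L23 cells challenged 6 h with TNFα 35 ng/mL, SMAC mimetic 700 nM and Z-VAD 140 nM. Nec-1s at 6.25 μM defined full inhibition; 4-parameter logistic fits yielded IC50 and Ymax.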

[2] = biological target: T1, His-GST-TVMV-hRIPK1 (1-324) (Homo sapiens (Human), UniProt Q13546); assay: biochemical
T1 sequence (Q13546 1-324): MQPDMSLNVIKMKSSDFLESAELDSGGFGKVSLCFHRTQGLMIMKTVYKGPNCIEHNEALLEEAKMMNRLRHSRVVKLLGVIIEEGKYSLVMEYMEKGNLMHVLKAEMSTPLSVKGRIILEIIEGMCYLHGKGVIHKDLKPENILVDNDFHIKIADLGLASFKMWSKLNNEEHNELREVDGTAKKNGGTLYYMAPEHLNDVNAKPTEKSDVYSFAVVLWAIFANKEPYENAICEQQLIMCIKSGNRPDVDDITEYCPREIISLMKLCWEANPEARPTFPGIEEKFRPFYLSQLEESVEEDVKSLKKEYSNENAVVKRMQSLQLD
Experimental: (§1) A solution was prepared containing 0.2 nM Anti GST-Tb (Cisbio, 61GSTTLB), 90.6 nM probe and 1 nM His-GST-TVMV-hRIPK1 (1-324) in FRET Buffer (20 mM HEPES, 10 mM MgCl2, 0.015% Brij-35, 4 mM DTT, 0.05 mg/mL BSA). Using Formulatrix Tempest, the detection antibody/enzyme/probe solution (2 mL) was dispensed into wells of a 1536 plate (Black Low Binding Polystyrene 1536 Plate (Corning, 3724)) containing 10 nL of compounds of interest at appropriate concentration in DMSO. The plate was incubated at rt for 1 h. FRET was measured using the EnVision plate reader (Excitation: 340 nm, Emission: 520 nm/495 nM). Total signal (0% inhibition) was calculated from wells containing 10 nL DMSO only.

[3] = biological target: T1, His-GST-TVMV-hRIPK1 (1-324); assay: RIPK1 HTRF Binding Assay; conditions: read-out: RIPK1 HTRF (IC50); FRET probe displacement, 1 h at rt
Experimental: as §1

Row | SMILES | IC50 [1] | IC50 [2] | IC50 ([1]; Homo sapiens) | IC50 [3]
1 | CNC(=O)c1n[nH]c2cc(-c3cnc(OC)c(C(=O)NC4CCCC(c5ccccc5)C4)c3)ccc12 (single isomer, unassigned) [Example 21-4, 6-{6-methoxy-5-[(3-phenylcyclohexyl)carbamoyl]pyridin-3-yl}-N-methyl-1H-indazole-3-carboxamide] | 2 nM | 2 nM |  | 
2 | [2H]C([2H])([2H])NC(=O)c1n[nH]c2cc(-c3cnc(OC)c(-c4nnn(C(C)c5ccc(F)cc5)n4)c3)ccc12 (single isomer, unassigned) [Example 19-1, 6-(5-(2-(1-(4-fluorophenyl)ethyl)-2H-tetrazol-5-yl)-6-methoxypyridin-3-yl)-N-(methyl-d3)-1H-indazole-3-carboxamide] | 14 nM | 42 nM |  | 
3 | CCC(c1ccccc1)n1nnc(-c2cc(-c3ccc4c(C(=O)NC)n[nH]c4c3)cnc2OC)n1 (single isomer, unassigned) [Example 18-1, 6-(6-methoxy-5-(2-(l-phenylpropyl)-2H-tetrazol-5-yl)pyridin-3-yl)-N-methyl-1H-indazole-3-carboxamide] | 7.3 nM | 5.5 nM |  | 
4 | CNC(=O)c1n[nH]c2cc(-c3cnc(OC)c(C(=O)NC4CCCC(c5ccccc5)C4)c3)ccc12 (single isomer, unassigned) [Example 21-2, 6-{6-methoxy-5-[(3-phenylcyclohexyl)carbamoyl]pyridin-3-yl}-N-methyl-1H-indazole-3-carboxamide] | 13 nM | 5.9 nM |  | 
5 | [2H]C([2H])([2H])Oc1ncc(-c2ccc3c(C(=O)NC4CC4)n[nH]c3c2)cc1C(=O)N[C@H](C)CC(=O)OC(C)(C)C [Example 196, tert-butyl (3R)-3-({5-[3-(cyclo-propylcarbamoyl)-1H-indazol-6-yl]-2-(deutero)methoxypyridin-3-yl}formamido)butanoate] | 19 nM | 84 nM |  | 
6 | [2H]C([2H])([2H])Oc1ncc(-c2ccc3c(C(=O)NC([2H])([2H])C([2H])([2H])[2H])n[nH]c3c2)cc1C(=O)N[C@@H](C)c1cc(C(F)(F)F)ccc1F [Example 226, N-[(1,1,2,2,2-deutero)ethyl]-6-(5-{[(1S)-1-[2-fluoro-5-(trifluoro-methyl)phenyl]ethyl]carbamoyl}-6-(deutero)methoxypyridin-3-yl)1H-indazole-3-carboxamide] |  | 57 nM | 41 nM | 
7 | [2H]C([2H])([2H])Oc1ncc(-c2ccc3c(C(=O)NC(C)C)n[nH]c3c2)cc1C(=O)NC(C)c1ccccc1OC(F)(F)F (racemic) [Example 22, (rac)-N-isopropyl-6-(6-methoxyd3-5-((1-(2-(trifluoromethoxy)phenyl)ethyl)carbamoyl)pyridin-3-yl)-1H-indazole-3-carboxamide] |  | 100 nM | 440 nM | 
8 | CNC(=O)c1n[nH]c2cc(-c3cnc(OC)c(C(=O)NC(C)c4ccccc4OC(F)(F)F)c3)cc(F)c12 (racemic) [Example 24, 4-fluoro-6-[6-methoxy-5-({1-[2-(trifluoromethoxy)phenyl]ethyl}carbamoyl)pyridin-3-yl]-N-methyl-1H-indazole-3-carboxamide] |  | 5.4 nM | 11 nM | 
9 | CNC(=O)c1n[nH]c2cc(-c3cnc(OC)c(C(=O)NC4CCCC(c5ccccc5)C4)c3)ccc12 (single isomer, unassigned) [Example 21-1, 6-{6-methoxy-5-[(3-phenylcyclohexyl)carbamoyl]pyridin-3-yl}-N-methyl-1H-indazole-3-carboxamide] | 8.3 nM | 3.5 nM |  | 
10 | CNC(=O)c1n[nH]c2cc(-c3cnc(C)c(C(=O)NC(C)c4cccc(OC(F)(F)F)c4)c3)ccc12 (single isomer, unassigned) [Example 155, N-methyl-6-[6-methyl-5-({1-[3-(tri-fluoromethoxy)phenyl]ethyl}car-bamoyl)pyridin-3-yl]-1H-indazole-3-carboxamide] | 22 nM |  |  | 13 nM
11 | CNC(=O)c1n[nH]c2cc(-c3cnc(OC)c(C(=O)NCCC(C)c4ccccc4)c3)ccc12 (stereo not drawn) [Example 37, 6-{6-methoxy-5-[(3-phenylbutyl)-carbamoyl]pyridin-3-yl}-N-methyl-1H-indazole-3-carbox-amide] | 0.3 nM |  |  | 1.7 nM
12 | CNC(=O)c1n[nH]c2cc(-c3cnc(C)c(C(=O)NCc4cc(F)ccc4OC4CCCC4)c3)ccc12 [Example 157, 6-[5-({[2-(cyclopentyloxy)-5-fluoro-phenyl]methyl}carbamoyl)-6-methylpyridin-3-yl]-N-methyl-1H-indazole-3-carboxamide, TFA] |  |  | 6.8 nM | 2.1 nM
13 | [2H]C([2H])([2H])NC(=O)c1n[nH]c2cc(-c3cnc(OC)c(C(=O)NCc4ccccc4OC(F)(F)F)c3)ccc12 [Example 153] |  |  | 6.3 nM | 2.9 nM
14 | CNC(=O)c1n[nH]c2cc(-c3cnc(OC)c(C(=O)NCc4ccccc4OCC(F)(F)F)c3)ccc12 [Example 75, 6-[6-methoxy-5-({[2-(2,2,2-trifluoroethoxy)phenyl]-methyl}carbamoyl)pyridin-3-yl]-N-methyl-1H-indazole-3-carboxamide, TFA] | 4.4 nM |  |  | 1.8 nM
15 | CNC(=O)c1n[nH]c2cc(-c3cnc(OC)c(C(=O)NCC4CCCOC4c4ccccc4)c3)ccc12 (stereo not drawn) [Example 79, 6-(6-methoxy-5-{[(2-phenyl-oxan-3-yl)methyl]carbamoyl}-pyridin-3-yl)-N-methyl-1H-indazole-3-carboxamide] |  |  | 21 nM | 1.8 nM
16 | CNC(=O)c1n[nH]c2cc(-c3cnc(OC)c(C(=O)NCCC(=O)OC(C)(C)C)c3)ccc12 [Example 74, tert-butyl 3-({2-methoxy-5-[3-(methylcarbamoyl)-1H-indazol-6-yl]pyridin-3-yl}formamido)-propanoate] |  |  | 62 nM | 28 nM
17 | CNC(=O)c1n[nH]c2cc(-c3cnc(OC)c(C(=O)NCc4cc(OC(F)(F)F)ccc4F)c3)ccc12 [Example 137] | 2.9 nM |  |  | 1.6 nM
18 | CNC(=O)c1n[nH]c2cc(-c3cnc(OC)c(C(=O)NC4CCCC(OCC(F)(F)F)C4)c3)ccc12 (stereo not drawn) [Example 87, 6-(6-methoxy-5-{[3-(2,2,2-trifluoroethoxy)cyclohexyl]-carbamoyl}pyridin-3-yl)-N-methyl-1H-indazole-3-carbox-amide] | 13 nM |  |  | 3.9 nM
19 | CNC(=O)c1n[nH]c2cc(-c3cnc(OC)c(C(=O)NCc4cc(F)ccc4OC(C)C)c3)ccc12 [Example 130, 6-[5-({[5-fluoro-2-(propan-2-yloxy)phenyl]methyl}carbam-oyl)-6-methoxy-pyridin-3-yl]-N-methyl-1H-indazole-3-carboxamide] | 3.9 nM |  |  | 1.9 nM
20 | CCCN(C)C(=O)C1CCCC(NC(=O)c2cc(-c3ccc4c(C(=O)NC)n[nH]c4c3)cnc2OC)C1 (stereo not drawn) [Example 100, 6-[6-methoxy-5-({3-[methyl-(propyl)carbamoyl]cyclo-hexyl}carbamoyl)pyridin-3-yl]-N-methyl-1H-indazole-3-carboxamide] |  |  | 63 nM | 18 nM
21 | CNC(=O)c1n[nH]c2cc(-c3cnc(OC)c(C(=O)NC4CCCC(C(=O)N5CC(F)(F)C5)C4)c3)ccc12 (stereo not drawn) [Example 132, 6-(5-{[3-(3,3-difluoroazet-idine-1-carbonyl)cyclohexyl]-carbamoyl}-6-methoxypyridin-3-yl)-N-methyl-1H-indazole-3-carboxamide, TFA] | 140 nM |  |  | 35 nM
22 | CNC(=O)c1n[nH]c2cc(-c3cnc(OC)c(C(=O)NCC4(c5ccc(F)cc5)CC4)c3)ccc12 [Example 71, 6-[5-({[1-(4-fluorophenyl)cyclo-propyl]methyl}carbamoyl)-6-methoxypyridin-3-yl]-N-methyl-1H-indazole-3-carboxamide] |  |  | 77 nM | 80 nM
23 | CCCCNC(=O)c1n[nH]c2cc(-c3cnc(OC)c(C(=O)NCc4ccccc4OC(F)(F)F)c3)ccc12 [Example 175, N-butyl-6-[6-methoxy-5-({[2-(trifluoromethoxy)phenyl]-methyl}carbamoyl)pyridin-3-yl]-1H-indazole-3-carboxamide] |  |  | 29 nM | 9.9 nM
24 | [2H]C([2H])([2H])Oc1ncc(-c2ccc3c(C(=O)NC4CCC(N(C([2H])([2H])[2H])C([2H])([2H])[2H])CC4)n[nH]c3c2)cc1C(=O)NC(C)c1cccc(OC(F)(F)F)c1 (stereo not drawn) [Example 23, N-(4-(dimethyld6-amino)cyclohexyl)-6-(6-methoxyd3-5-((1-(3-(trifluoromethoxy)phenyl)ethyl)carbamoyl)pyridin-3-yl)-1H-indazole-3-carboxamide] |  |  | 140 nM | 24 nM
25 | CNC(=O)c1n[nH]c2cc(-c3cc(C(=O)NCc4cccc(OC(F)(F)F)c4)c(OC)nc3C)ccc12 [Example 160, 6-[6-methoxy-2-methyl-5-({[3-(trifluoromethoxy)-phenyl]methyl}carbamoyl)-pyridin-3-yl]-N-methyl-1H-indazole-3-carboxamide] |  |  | 120 nM | 27 nM
26 | [2H]C([2H])([2H])NC(=O)c1n[nH]c2cc(-c3cnc(OC([2H])([2H])[2H])c(C(=O)N[C@H](C)c4ccccc4OC(F)(F)F)c3)ccc12 [Example 7, (R)-6-(6-(methoxy-d3)-5-((1-(2-(trifluoromethoxy)phenyl)ethyl)carbamoyl)pyridin-3-yl)-N-(methyl-d3)-1H-indazole-3-carboxamide] |  |  | 4.6 nM | 8.5 nM
27 | [2H]C([2H])([2H])Oc1ncc(-c2ccc3c(C(=O)NC)n[nH]c3c2)cc1C(=O)NCCC(=O)OC(C)(C)C [Example 26, tert-butyl 3-{[2-(deutero)methoxy-5-[3-(methylcarbamoyl)-1H-indazol-6-yl]pyridin-3-yl]form-amido}propanoate] |  |  | 90 nM | 82 nM
